How the values were obtained:
patients with PBC [1] = conditions: in vivo; cited from earlier work
subjects with PBC = test: Clinical study, not further specified (Summary); format: in vivo, human; conditions: treatment of subjects with elafibranor
[2] = test system: participants with PBC and baseline ALP >1×ULN and <1.67×ULN; test: Phase IIIb randomised, double-blind, placebo-controlled, two-arm study (Example 1); format: in vivo, human; conditions: 80 mg once daily versus placebo; baseline ALP more than 1×ULN and at most 1.67×ULN
[3] = test system: participants with PBC with inadequate response or intolerance to UDCA; test: ELATIVE phase III double-blind, randomised, placebo-controlled study (GFT505B-319-1, NCT04526665); format: in vivo, human
Description: This was assessed based on the primary endpoint, which combined reductions in ALP and total bilirubin (TB).

patients with PBC [4] = conditions: cited from earlier work

**Q.** For C[C@H](CCC(=O)O)[C@H]1CC[C@H]2[C@@H]3[C@@H](O)C[C@@H]4C[C@H](O)CC[C@]4(C)[C@H]3CC[C@]12C [UDCA, Ursodeoxycholic acid], which “proportion of PBC patients intolerant to UDCA” value (patients with PBC [1]) is on record?
**A.** up to 5%

**Q.** With CSc1ccc(C(=O)/C=C/c2cc(C)c(OC(C)(C)C(=O)O)c(C)c2)cc1 [elafibranor] as the molecule, how does the “biochemical markers in the plasma” value (subjects with PBC) read?
**A.** relevant reduction of biochemical markers in the plasma

**Q.** And the “prevention of clinical outcome events showing disease worsening (including progression leading to liver transplant or death)” value [2]?
**A.** better than placebo

**Q.** And the “improvement in cholestasis (primary endpoint combining reductions in ALP and total bilirubin)” value ([3]; compared to placebo, double-blind period)?
**A.** greater improvement in cholestasis compared to placebo

**Q.** And the safety and tolerability ([3]; patients with PBC)?
**A.** safe and well-tolerated

**Q.** Which results are given for CC[C@H]1[C@@H](O)[C@@H]2[C@H](CC[C@]3(C)[C@@H]([C@H](C)CCC(=O)O)CC[C@@H]23)[C@@]2(C)CC[C@@H](O)C[C@@H]12 [obeticholic acid]?
**A.** liver failure (patients with PBC [4]; patients with advanced cirrhosis): reports of patients with advanced cirrhosis developing liver failure; pruritus (patients with PBC [4]; second line therapy): clinically significant pruritus has been reported in a significant portion of patients

From patent publication US20260157986A1, “METHODS OF TREATMENT OF PRIMARY BILIARY CHOLANGITIS” (Ipsen Pharma, priority 2024, published 2026)
